A short description of series [1]: Pharmacokinetic study after single SC injection. The series is classed as in vivo, Sprague-Dawley rats.
Experimental: Jugular vein cannulated (JVC) female Sprague-Dawley rats were used for a pharmacokinetic (PK) study. The rats were housed in a holding room that operates on a 12-hr light/12-hr dark circadian cycle and that provides free access to water and food. […] Blood samples were collected at 15 min, 1 hour, 2 hours, 4 hours, 8 hours, 24 hours, 48 hours, and 72 hours post-injection. Plasma samples were obtained by centrifugation and were kept frozen at −80° C. until analysis. PK data obtained from the samples were analyzed using a noncompartmental model (WinNonlin® software).
In series [2] the test system is paw incision mouse model. The series can be described thus: Anesthetic effect in a paw incision mouse model (von Frey mechanical threshold). The series is classed as in vivo, C57/BL6 mice. To be noted: 0.18 mg ropivacaine per incision. The procedure: Wild type male C57/BL6 mice (8-week-old, Envigo) were used for evaluating the anesthetic efficacy after paw incision as described in Anesthesiology, 2003 October; 99 (4): 1023-7 and J. Neurosci Methods. 1994 July; 53 (1): 55-63. […] Baseline (T=−2 hours) mechanical (von Frey) thresholds of 32 mice were taken prior to surgery; baseline thresholds were measured on the mouse's left hind paw. All 32 mice received a plantar incision (5 mm long and […]) on their left hind paw. Two-hours post-surgery (T=0 hour), the mechanical threshold of each mouse was reassessed and the presence of mechanical allodynia in each mouse was confirmed. Thirty-two mice were randomized into 4 groups (8 mice per group). […] The 50% paw withdrawal threshold of each mouse was obtained using the up-down method at baseline time point (−2), and the designated time points (0, 1, 2, 3, 4, 5, 6, 8, and 24 hours) after SC injection treatment. […] The average 50% withdrawal threshold for each treatment group was graphed; data presented as a withdrawal threshold (g) were plotted against time (FIG. 2A). To account for variability among the baseline mechanical sensitivities of individual mice, each mouse's 50% paw withdrawal thresholds after surgery and treatment were normalized to its own baseline 50% withdrawal threshold (T=−2 hours). […]

Series [3] in a line: pKa and ionisation state stated in text. The class given is physicochemical. To be noted: at pH 6.0, calculation from pKa.
The mark [4] stands for this setting: female, Sprague-Dawley, rat, plasma, sc, 20 mg/kg.

The values below come from patent US12280043B2, “Sustained-release anesthetic compositions and methods of preparation thereof” (TLC Biopharmaceuticals, Inc., priority 2017, dated 2025).

Regarding `CCCN1CCCC[C@H]1C(=O)Nc1c(C)cccc1C` [Ropivacaine, ropivacaine], in series [1] (setting [4]), the concentration peaked (Cmax) at 802 ± 208 ng/mL and the half-life is 3.1 ± 1.4 h. In series [1] (female, Sprague-Dawley, rat, plasma, sc, 20 mg/kg, read-out: AUC0-4), the AUC(0-t) worked out at 4040 ± 632 ng·h/mL. Also, in series [1] (rats, single SC, same dosage 20.0 mg/kg), the “time until which ropivacaine could be detected in the plasma” value was at most 24 h. Moreover, the “analgesia compared to vehicle group” value in series [2] (SC) is given as “some degree of analgesia”. The “withdrawal threshold at the first time point” value in series [2] (T=1 hour after SC injection, increased from 0.04 g) came out at 0.22 g. Further, in series [3], the “theoretically uncharged ropivacaine, of available ropivacaine” value is reported as 0.8%.

By Cmax is commonly meant the maximum level reached in the sampled fluid or tissue. What is called half-life is the time needed for the level to fall by half in the phase considered.
